Measurements reported in patent US20120041030A1, “PYRIDINE THIO DERIVATIVE, AND PHARMACEUTICAL COMPOSITION WHICH CONTAINS SAME AND HAS ANTI-HELICOBACTER PYLORI ACTION” (priority 2009, published 2012).
Where two headings read alike, the source gives them in different places.

Assays:
Assay type in all cases: cell-based
[1] = test system: Staphylococcus epidermidis (ATCC 12228); assay: Antibacterial test (MIC), comparison bacteria; details: for MIC: ATCC12228, Gram positive, read-out: minimum inhibitory concentration (MIC)
Experimental: (§1) ATCC43504 which was a standard bacterial strain was used as Helicobacter pylori (H. pylori) to perform the test in vitro in a Columbia agar medium. The bacteria were cultured at 37° C. and a pH of 7.0 for three days. The minimum inhibitory concentration (MIC, μg/ml) was found on the fourth day. Each sample was dissolved in 1% DMSO to use. […] As bacteria for comparison, Gram negative bacteria, for example, E. coli (ATCC 10536 ATCC 25922), Klebsiella pneumonia (ATCC 10031), Proteus vulgaris (ATCC 13315), Pseudomonas aeruginosa (ATCC 9027) and Salmonella typhimurium (ATCC 13311) were used and Gram positive bacteria, for example, Staphylococcus aureus, MRSA (ATCC 33591), Staphylococcus epidermidis (ATCC 12228), Streptococcus pneumonia (ATCC 6301), Mycobacterium ranae (ATCC 110) and Enterococcus faecalis (VRE, ATCC 51575) were used.
(§2) The values in each table show minimum inhibitory concentrations (MIC, μg/ml).

[2] = test system: Pseudomonas aeruginosa (ATCC 9027); assay: Antibacterial test (MIC), comparison bacteria; details: for MIC: ATCC9027, Gram negative, read-out: minimum inhibitory concentration (MIC)
Experimental: as §1, §2

[3] = test system: Streptococcus pneumonia (ATCC 6301); assay: Antibacterial test (MIC), comparison bacteria; details: for MIC: Streptococcus pneumoniae, ATCC6301, Gram positive, read-out: minimum inhibitory concentration (MIC)
Experimental: as §1, §2

[4] = test system: Mycobacterium ranae (ATCC 110); assay: Antibacterial test (MIC), comparison bacteria; details: for MIC: ATCC110, Gram positive, read-out: minimum inhibitory concentration (MIC)
Experimental: as §1, §2

[5] = test system: Proteus vulgaris (ATCC 13315); assay: Antibacterial test (MIC), comparison bacteria; details: for MIC: ATCC13315, Gram negative, read-out: minimum inhibitory concentration (MIC)
Experimental: as §1, §2

[6] = test system: Staphylococcus aureus (MRSA, ATCC 33591); assay: Antibacterial test (MIC), comparison bacteria; details: Gram positive; for MIC: read-out: minimum inhibitory concentration (MIC)
Experimental: as §1, §2

[7] = test system: Escherichia coli (ATCC 10536); assay: Antibacterial test (MIC), comparison bacteria; details: for MIC: ATCC10536, Gram negative, read-out: minimum inhibitory concentration (MIC)
Experimental: as §1, §2

[8] = test system: Klebsiella pneumonia (ATCC 10031); assay: Antibacterial test (MIC), comparison bacteria; details: for MIC: Klebsiella pneumoniae, ATCC10031, Gram negative, read-out: minimum inhibitory concentration (MIC)
Experimental: as §1, §2

[9] = test system: Escherichia coli (ATCC 25922); assay: Antibacterial test (MIC), comparison bacteria; details: for MIC: ATCC25922, Gram negative, read-out: minimum inhibitory concentration (MIC)
Experimental: as §1, §2

[10] = test system: Enterococcus faecalis (VRE, ATCC 51575); assay: Antibacterial test (MIC), comparison bacteria; details: Gram positive; for MIC: read-out: minimum inhibitory concentration (MIC)
Experimental: as §1, §2

[11] = test system: Salmonella typhimurium (ATCC 13311); assay: Antibacterial test (MIC), comparison bacteria; details: Gram negative; for MIC: Salmonella enterica, read-out: minimum inhibitory concentration (MIC)
Experimental: as §1, §2

[12] = test system: Helicobacter pylori (ATCC 43504); assay: Antibacterial test (MIC) against Helicobacter pylori; details: for MIC: Helicobacter pylori
Experimental: as §1, §2

[13] = test system: Gram negative or Gram positive bacteria; assay: Antibacterial test (MIC), comparison bacteria summarised in text; details: text summary over the comparison bacteria
Experimental: ATCC43504 which was a standard bacterial strain was used as Helicobacter pylori (H. pylori) to perform the test in vitro in a Columbia agar medium. The bacteria were cultured at 37° C. and a pH of 7.0 for three days. The minimum inhibitory concentration (MIC, μg/ml) was found on the fourth day. Each sample was dissolved in 1% DMSO to use. As control drugs for the antibacterial agent, ampicillin (AMPC), clarithromycin (CAM), and gentamycin (GEM) were used. As bacteria for comparison, Gram negative bacteria, for example, E. coli (ATCC 10536 ATCC 25922), Klebsiella pneumonia (ATCC 10031), Proteus vulgaris (ATCC 13315), Pseudomonas aeruginosa (ATCC 9027) and Salmonella typhimurium (ATCC 13311) were used and Gram positive bacteria, for example, Staphylococcus aureus, MRSA (ATCC 33591), Staphylococcus epidermidis (ATCC 12228), Streptococcus pneumonia (ATCC 6301), Mycobacterium ranae (ATCC 110) and Enterococcus faecalis (VRE, ATCC 51575) were used.
as §2

[14] = ATCC43504, 72 h, pH 7, Helicobacter pylori ATCC 43504, Columbia agar medium, 37° C., pH 7.0, cultured three days, MIC found on the fourth day, read-out: minimum inhibitory concentration (MIC)

CCOCCCOc1ccnc(SCc2nc3ccccc3[nH]2)c1C [Example 11]
> 100 µg/mL: MIC [1] | MIC [2] | MIC [3] | MIC [4] | MIC [5] | MIC [6] | MIC [7] | MIC [8] | MIC [9] | MIC [10] | MIC [11]
0.1 µg/mL: MIC [12, 14]

COCCOCCOc1ccnc(SCc2nc3ccccc3[nH]2)c1C.Cl [Example 12, 2-[[[4-[2-(2-methoxyethoxy)-ethoxy]-3-methyl-2-pyridyl]thio]-methyl]-1H-benzimidazole hydrochloride]
> 100 µg/mL: MIC [1] | MIC [2] | MIC [3] | MIC [4] | MIC [5] | MIC [6] | MIC [7] | MIC [8] | MIC [9] | MIC [10] | MIC [11]
0.3 µg/mL: MIC [12, 14]

Cc1c(OCCCCCCCCO)ccnc1SCc1nc2ccccc2[nH]1 [Example 13, 2-[[[4-(8-hydroxy-1-octyloxy)-3-methyl-2-pyridyl]thio]-methyl]-1H-benzimidazole]
> 100 µg/mL: MIC [1] | MIC [2] | MIC [3] | MIC [4] | MIC [5] | MIC [6] | MIC [7] | MIC [8] | MIC [9] | MIC [10] | MIC [11]
0.003 µg: MIC ([12]; summary of Tables 2 and 3)

Gentamycin [GEM, reference compound]
3.0 µg/mL: minimum inhibitory concentration (MIC) [11]
0.1 to 1.0 µg/mL: MIC against Gram negative or Gram positive bacteria [13]
1.0 µg/mL: minimum inhibitory concentration (MIC) ([2]; Gram negative) | minimum inhibitory concentration (MIC) [6] | minimum inhibitory concentration (MIC) ([8]; Gram negative) | minimum inhibitory concentration (MIC) ([9]; Gram negative)
100 µg/mL: minimum inhibitory concentration (MIC) ([3]; Gram positive) | minimum inhibitory concentration (MIC) [10]
0.1 µg/mL: minimum inhibitory concentration (MIC) ([1]; Gram positive)
0.3 µg/mL: minimum inhibitory concentration (MIC) ([4]; Gram positive) | minimum inhibitory concentration (MIC) ([5]; Gram negative) | minimum inhibitory concentration (MIC) ([7]; Gram negative) | minimum inhibitory concentration (MIC) ([12]; Helicobacter pylori ATCC 43504, Columbia agar medium, 37° C., pH 7.0, cultured three days, MIC found on the fourth day) | MIC against Helicobacter pylori ([12]; control drug)
